This note sets out measurements from ChEMBL document CHEMBL1140500, “Arene cis-dihydrodiols: useful precursors for the preparation of analogues of the anti-tumour agent, 2-crotonyloxymethyl-(4R,5R,6R)-4,5,6-trihydroxycyclohex-2-enone (COTC)” (Bioorg Med Chem Lett, 2007).

Experiment [1] deals with NCI-H460. As to the kind of experiment: Cytotoxicity against human H460 cells assessed as surviving cells after 4 days by MTT assay. The experiment is classed as cell-based. In general terms: Formazan colour is commonly taken as a measure of viable cells.
The test system of experiment [2] is A549. As to the kind of experiment: Cytotoxicity against human A549 cells assessed as surviving cells after 4 days by MTT assay. The experiment is classed as cell-based.

One may read the IC50 as the concentration at which inhibition is half-maximal. On to `C/C=C/C(=O)OCC1=CC(O)C(O)C(O)C1=O` (racemic), for which the concentration for half-maximal inhibition (IC50) in experiment [1] (nci-h460) was determined as 160 µM; in experiment [2] (a549) it was 184 µM.

Regarding `C/C=C/C(=O)OCC1=CC(O)C2OC(C)(OC)C(C)(OC)OC2C1=O` (racemic), the IC50 was 18 µM in experiment [1] (nci-h460) and 30 µM in experiment [2] (a549).

Take `C/C=C/C(=O)OCC1=CC(O)C2OC(C)(OC)C(C)(OC)OC2C1=O` (single isomer, unassigned; (+)): the IC50 was 36 µM in experiment [1] (Homo sapiens, NCI-H460, 96 h) and 60 µM in experiment [2] (Homo sapiens, A549, 96 h).

Turning to `C/C=C/C(=O)OCC1=CC(O)C(O)C(O)C1=O` (single isomer, unassigned; (-)), the IC50 in experiment [1] (Homo sapiens, NCI-H460, 96 h) is 158 µM; in experiment [2] (Homo sapiens, A549, 96 h) it was 170 µM.
